Assay: UVvis maximum absorption wavelength of selected dyes (Table 1)
Assay type: physicochemical
Conditions: source not stated
In the case of “2,11,20,29-Tetra-tert-butyl-2,3-naphthalocyanine”, the UVvis maximum was 712 nm.
Compound `CCCCOc1ccc(OCCCC)c2c1-c1nc3nc(nc4[nH]c([nH]c5nc(nc-2n1)-c1c(OCCCC)ccc(OCCCC)c1-5)c1c(OCCCC)ccc(OCCCC)c41)-c1c(OCCCC)ccc(OCCCC)c1-3` [1,4,8,11,15,18,22,25-Octabutoxy-29H,31H-phthalocyanine] has a UVvis maximum of 762 nm.
In the case of `CCC1=C(CC)c2cc3[nH]c(cc4nc(cc5[nH]c(cc1n2)c(CC)c5CC)C(CC)=C4CC)c(CC)c3CC` [2,3,7,8,12,13,17,18-Octaethyl-21H,23H-porphine], the UVvis maximum was 401 nm.
Work on `CCCCCCCCOc1cc2c(cc1OCCCCCCCC)-c1nc-2nc2[nH]c(nc3nc(nc4[nH]c(n1)c1cc(OCCCCCCCC)c(OCCCCCCCC)cc41)-c1cc(OCCCCCCCC)c(OCCCCCCCC)cc1-3)c1cc(OCCCCCCCC)c(OCCCCCCCC)cc21` [2,3,9,10,16,17,23,24-Octakis(octyloxy)-29H,31H-phthalocyanine] yielded a UVvis maximum of 701 nm.
Work on `CC(C)(C)c1ccc2c(c1)-c1nc3nc(nc4[nH]c(nc5[nH]c(nc-2n1)c1cc(C(C)(C)C)ccc51)c1cc(C(C)(C)C)ccc41)-c1ccc(C(C)(C)C)cc1-3` [2,9,16,23-Tetra-tert-butyl-29H,31H-phthalocyanine] yielded a UVvis maximum of 696 nm.
In the case of `CCCCOc1c2c(c(OCCCC)c3ccccc13)-c1nc-2nc2[nH]c(nc3nc(nc4[nH]c(n1)c1c(OCCCC)c5ccccc5c(OCCCC)c41)-c1c-3c(OCCCC)c3ccccc3c1OCCCC)c1c(OCCCC)c3ccccc3c(OCCCC)c21` [5,9,14,18,23,27,32,36-Octabutoxy-2,3-naphthalocyanine], the UVvis maximum was 784 nm.
With `C1=Cc2nc1c(-c1ccccc1)c1ccc([nH]1)c(-c1ccccc1)c1nc(c(-c3ccccc3)c3ccc([nH]3)c2-c2ccccc2)C=C1` [5,10,15,20-Tetraphenyl-21H,23H-porphine] the UVvis maximum was 514 nm.
`C#CCNC(=O)CCCCCN1C(=CC=CC=CC2=[N+](C)c3ccccc3C2(C)C)C(C)(C)c2ccccc21.[Cl-]` [Cy5-alkyne] showed a UVvis maximum of 646 nm.
Compound `C#CCNC(=O)CCCCCN1C(=CC=CC=CC2=[N+](C)c3ccc4ccccc4c3C2(C)C)C(C)(C)c2c1ccc1ccccc21.[Cl-]` [Cy5.5-alkyne] has a UVvis maximum of 684 nm.
With `C#CCNC(=O)CCCCCN1/C(=C/C=C2C=C(/C=C/C3=[N+](C)c4ccc5ccccc5c4C3(C)C)CCC/2)C(C)(C)c2c1ccc1ccccc21.[Cl-]` [Cy7.5-alkyne] the UVvis maximum was 788 nm.
Compound `c1ccc2c(c1)-c1nc-2nc2[nH]c(nc3nc(nc4[nH]c(n1)c1ccccc41)-c1ccccc1-3)c1ccccc21` [Phthalocyanine] has a UVvis maximum of 698 nm.
In the case of Cy7-alkyne, the UVvis maximum was 750 nm.

Assay: Spectroscopic characterization of SSIB-Cy7.5 in SAIB or LOIB markers
Assay type: physicochemical
Conditions: 0.01% w/w in LOIB:xSAIB:EtOH:D&Cv2
With “6′-(Cyanine 7.5)-Isobutyric Sucrose [SSIB-Cy7.5]” the “broad emission peak centre” value was 845 nm.

Same assay, conditions: SAIB:xSAIB:EtOH 70:10:20
For “6′-(Cyanine 7.5)-Isobutyric Sucrose [SSIB-Cy7.5]”, the “dye concentration up to which emission intensity increased (then self-quenching)” value was 0.003 % w/w.

Same assay, conditions: UVvis in LOIB:xSAIB:EtOH:D&Cv2; 0.1% w/w D&Cv2, 0.01% w/w SSIB-Cy7.5
For `Cc1ccc(Nc2ccc(O)c3c2C(=O)c2ccccc2C3=O)cc1` [D&Cv2], the absorption peak was 590 nm.
